{"source": "paper PMC4432228", "about": "“Tight regulation of the unfolded protein sensor Ire1 by its intramolecularly antagonizing subdomain” (Journal of Cell Science, 2015)", "tested_on": "MBP–CSSR (core stress-sensing region of yeast Ire1)", "assay": "In vitro competition assay for peptide binding to the CSSR (fluorescence anisotropy of ΔEspP–FAM)", "parameters": "species or system Saccharomyces cerevisiae", "conditions": "Fig. 6C", "protocol": "Fig. 6. Two-hybrid and in vitro interaction of the CSSR with various peptides. (A,B) A yeast two-hybrid analysis was performed using the CSSR and its mutants as prey. The Subregion I 60-amino-acid portion (Sub-I), Segment 4 (Seg4; six tandem repeat), GGGSS (12 tandem repeat), Segments 1–3 (Segs1–3; amino acids 32–61 of yeast Ire1; two tandem repeat), Segments 4–6 (Segs4–6; amino acids 62–91 of yeast Ire1; two tandem repeat), the NUCR of human or mouse PERK (hPERK or mPERK), the Top2 IDR (Top2; two tandem repeat) and the San1 IDR (San1) were used as bait. Tester cell cultures were serially diluted tenfold, spotted on agar plates, incubated for 2–4 days and photographed. WT, wild type. (C) A fluorescently labeled peptide DEspP–FAM (10 µM final concentration) was mixed with MBP–CSSR (5 µM final concentration) and a competitor peptide [Segment (Seg) 2–6] and measured for fluorescence anisotropy. The resulting values from triplicate assays (mean±s.d.) are normalized to that for the no competitor peptide condition.\nNext, we performed an in vitro competition assay to monitor the affinity of the Subregion I segments for the CSSR. A recombinant CSSR protein tagged with the maltose-binding protein (MBP–CSSR) was expressed in Escherichia coli and purified with amylose resin ([Kimata et al., 2007]). […]", "data": [{"substance": "Segment 4: Untagged competitor peptide NH2-KKKA-[10 amino acids of Segment 4 of yeast Ire1 Subregion I]-AAKKKK-COOH (H-KKKAIPAPRTTEGLAAKKKK-OH)", "values": [{"measurement": "Affinity of capture by the CSSR relative to other Subregion I segments", "setting": "in vitro competition analysis", "result": "higher affinity than for other segments"}, {"measurement": "Reduction of ΔEspP–FAM fluorescence anisotropy by competitor peptide (reduced association between ΔEspP–FAM and MBP–CSSR)", "setting": "ΔEspP–FAM 10 µM, MBP–CSSR 5 µM, elution buffer A (50 mM HEPES pH 8.0), 30 min incubation, 25°C, triplicate assays, normalized to no competitor", "result": "more effectively than the other segments did"}]}]}
